Test results: patent publication US20230139025A1, “ANTIOXIDANT FOR USE IN TREATMENT FOR RIBE” (Institute of Hematology and Blood Diseases Hospital, CAMS & …, priority 2021, published 2023)

Key:
[1] = system: in vitro bystander human HSPCs; assay: Transplantation of in vitro antioxidant-treated bystander human CD34+ cells into NOG mice; assay type: in vivo; settings: for HPC (CD34+CD38+) engraftment in BM: antioxidant treatment in vitro, FIG. 9C
Description: (A) Collected human CD34^+ cells from FIG. 8(A) were transplanted into NOG mice. Mean human cell engraftment (left) after human CD34^+ cells collected from FIG. 8(A) transplanted into NOG mice and bars represent the fold difference of engraftment levels from each group (right, n = 6 to 8 per group). (B-C) Frequency of human CD34^+CD38^- cells (B) and CD34^+CD38^+ cells (C) in the BM of recipient; (D) Mean engraftment level of human cells in the spleen of recipients; and (E) Number of hematopoietic clones formed by human CD34^+ cells of each group (^∗p < 0.05, ^∗∗p <[…] 0.01, ^∗∗∗p < 0.001). For the in vitro RIBE model, we cocultured CB-CD34^+ cells with 10 Gy irradiated or nonirradiated human BM cells using a transwell system. After 17 hours of coculture, the CD34^+ cells in the insert (in vitro bystander cells) were collected for subsequent experiments (FIG. 2). Female NOG mice were irradiated at a dose of 2.0 Gy one day before transplantation. The homing human CD34^+ cells were transplanted into recipients at a dose of 5,000 cells/mouse intravenously. For serial transplantations, 1×10^7 whole BM cells from each primary recipient were intravenously transplanted into secondary recipient mice that were exposed to sublethal irradiation (2.0 Gy). Next, we asked whether the pharmacological inhibition of ROS elevation could protect human HSPCs from functional degradation. We used three antioxidants: N-acetyl-L-cysteine (NAC), sulforaphane (SF) and resveratrol (Res), to eliminate excessive ROS from bystander human HSPCs in vitro. For the in vitro RIBE, the BM cells were treated with NAC, SF or Res for 30 minutes before irradiation, and the antioxidants continued to exist in the coculture system until the CB CD34^+ cells were collected for analysis and some were transplanted into sublethally irradiated NOG mice intravenously (FIG. 7).

HSPCs (CD34+ cells) = assay: γ-H2AX protein by Western blot after cytokine addition to in vitro culture system; assay type: cell-based, human; settings: cytokine added to in vitro culture system, FIG. 6H
Experimental: (A) Flow cytometric analysis of fold change of ROS levels by DCF-DA staining in human CD34^+ cells of in vitro RIBE model; (B) Western blot verified the expression of related signaling pathway at the protein levels.
For the in vitro RIBE model, we cocultured CB-CD34^+ cells with 10 Gy irradiated or nonirradiated human BM cells using a transwell system. After 17 hours of coculture, the CD34^+ cells in the insert (in vitro bystander cells) were collected for subsequent experiments (FIG. 2).
Cytokines may exert multiple functions involving stress and inflammatory responses, which are also associated with RIBE. We observed several cytokines including IL-1, IL-6, IL-8, TNF-α, etc., were increased after irradiation (FIG. 6F). […] Moreover, we added IL-1α or IL-1ra to the in-vitro culture system and then measured the γ-H2AX protein by Western blot.

HSPCs = assay: ROS levels of HSPCs in cytokine-treated groups; assay type: cell-based, human
[2] = system: in vivo bystander human HSPCs; assay: In vivo RIBE model with antioxidant treatment, transplantation of homing human CD34+ cells into NOG mice; settings: FIG. 11C
Experimental: NOG mice were given antioxidants for 7 days before irradiation.
For the in vivo RIBE model, CD34^+ cells purified from human cord blood (CB) were intravenously injected into 10 Gy irradiated (RIBE group) or nonirradiated (Control group) NOD/Shi-scid/IL-2Rγ^null (NOG) mice separately. After 17 hours, homing human CD34^+ cells (in vivo bystander cells) from recipients were individually detected or sorted for subsequent experiments (FIG. 1).
For the in vivo RIBE, the mice were treated with NAC, SF or Res for 7 days. CB CD34^+ cells were injected into nonirradiated or 10 Gy irradiated NOG mice in either the control, RIBE or RIBE with antioxidant treatment groups. After 17 hours, the homing human CD34^+ cells were sorted individually and transplanted into sublethally irradiated NOG mice (FIG. 10).

| Molecule | HPC (CD34+CD38+) engraftment in BM [1] | DNA damage of HSPCs (γ-H2AX protein level) (HSPCs (CD34+ cells)) | ROS levels of HSPCs (HSPCs) | HPC (CD34+CD38+) engraftment in BM [2] | myeloid and erythroid engraftment ([1]; antioxidant administration in vitro, BM, vs RIBE group) |
| --- | --- | --- | --- | --- | --- |
| C[S+]([O-])CCCCN=C=S (centres unmarked) [SF, sulforaphane] | could improve HPC engraftment |  |  |  |  |
| IL-1ra: cytokine added to the in-vitro culture system |  | can slightly increase DNA damage of bystander HSPCs | did not change |  |  |
| Oc1ccc(C=Cc2cc(O)cc(O)c2)cc1 [Res, resveratrol] | could improve HPC engraftment |  |  | could improve HPC engraftment in vivo | significantly higher myeloid and erythroid engraftment than the RIBE group |
| IL-1α: cytokine added to the in-vitro culture system (protein, UniProt P01583 113-271, looked up) Interleukin-1 alpha: SAPFSFLSNVKYNFMRIIKYEFILNDALNQSIIRANDQYLTAAALHNLDEAVKFDMGAYKSSKDDAKITVILRISKTQLYVTAQDEDQPVLLKEMPEIPKTITGSETNLLFFWETHGTKNYFTSVAHPNLFIATKQDYWVCLAGGPPSITDFQILENQA |  | could loosen DNA damage of HSPCs both in the control and RIBE groups | did not change |  |  |
